Test results published in US12539292B2, “BRM targeting compounds and associated methods of use” (Arvinas Operations, Inc., priority 2018, dated 2026).

Biological target: T1, BRM (Homo sapiens, UniProt P51531)
T1 construct: In-Cell Western Screen of BRM Degradation in SW1573 Cells; endogenous in cells; host or cells: SW1573
Assay: In-cell Western screen of BRM degradation in SW1573 cells (Dmax and DC50)
Type: cell-based
Conditions: BRM degradation, SW1573 cells; for DC50: read-out: DC50; for Dmax: when tested at the top concentration of between 0.3 and 10 μM, read-out: Dmax (%) (% degraded)
Procedure, shortened: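 Overnight compound treatment (18-20 h, final DMSO 0.1%) of SW1573 cells in DMEM with 10% FBS precedes fixation and in-cell Western staining with 800/680 nm dye-labelled secondaries. Plate images give DC50 and maximal degradation.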

T1 sequence (P51531 whole entry): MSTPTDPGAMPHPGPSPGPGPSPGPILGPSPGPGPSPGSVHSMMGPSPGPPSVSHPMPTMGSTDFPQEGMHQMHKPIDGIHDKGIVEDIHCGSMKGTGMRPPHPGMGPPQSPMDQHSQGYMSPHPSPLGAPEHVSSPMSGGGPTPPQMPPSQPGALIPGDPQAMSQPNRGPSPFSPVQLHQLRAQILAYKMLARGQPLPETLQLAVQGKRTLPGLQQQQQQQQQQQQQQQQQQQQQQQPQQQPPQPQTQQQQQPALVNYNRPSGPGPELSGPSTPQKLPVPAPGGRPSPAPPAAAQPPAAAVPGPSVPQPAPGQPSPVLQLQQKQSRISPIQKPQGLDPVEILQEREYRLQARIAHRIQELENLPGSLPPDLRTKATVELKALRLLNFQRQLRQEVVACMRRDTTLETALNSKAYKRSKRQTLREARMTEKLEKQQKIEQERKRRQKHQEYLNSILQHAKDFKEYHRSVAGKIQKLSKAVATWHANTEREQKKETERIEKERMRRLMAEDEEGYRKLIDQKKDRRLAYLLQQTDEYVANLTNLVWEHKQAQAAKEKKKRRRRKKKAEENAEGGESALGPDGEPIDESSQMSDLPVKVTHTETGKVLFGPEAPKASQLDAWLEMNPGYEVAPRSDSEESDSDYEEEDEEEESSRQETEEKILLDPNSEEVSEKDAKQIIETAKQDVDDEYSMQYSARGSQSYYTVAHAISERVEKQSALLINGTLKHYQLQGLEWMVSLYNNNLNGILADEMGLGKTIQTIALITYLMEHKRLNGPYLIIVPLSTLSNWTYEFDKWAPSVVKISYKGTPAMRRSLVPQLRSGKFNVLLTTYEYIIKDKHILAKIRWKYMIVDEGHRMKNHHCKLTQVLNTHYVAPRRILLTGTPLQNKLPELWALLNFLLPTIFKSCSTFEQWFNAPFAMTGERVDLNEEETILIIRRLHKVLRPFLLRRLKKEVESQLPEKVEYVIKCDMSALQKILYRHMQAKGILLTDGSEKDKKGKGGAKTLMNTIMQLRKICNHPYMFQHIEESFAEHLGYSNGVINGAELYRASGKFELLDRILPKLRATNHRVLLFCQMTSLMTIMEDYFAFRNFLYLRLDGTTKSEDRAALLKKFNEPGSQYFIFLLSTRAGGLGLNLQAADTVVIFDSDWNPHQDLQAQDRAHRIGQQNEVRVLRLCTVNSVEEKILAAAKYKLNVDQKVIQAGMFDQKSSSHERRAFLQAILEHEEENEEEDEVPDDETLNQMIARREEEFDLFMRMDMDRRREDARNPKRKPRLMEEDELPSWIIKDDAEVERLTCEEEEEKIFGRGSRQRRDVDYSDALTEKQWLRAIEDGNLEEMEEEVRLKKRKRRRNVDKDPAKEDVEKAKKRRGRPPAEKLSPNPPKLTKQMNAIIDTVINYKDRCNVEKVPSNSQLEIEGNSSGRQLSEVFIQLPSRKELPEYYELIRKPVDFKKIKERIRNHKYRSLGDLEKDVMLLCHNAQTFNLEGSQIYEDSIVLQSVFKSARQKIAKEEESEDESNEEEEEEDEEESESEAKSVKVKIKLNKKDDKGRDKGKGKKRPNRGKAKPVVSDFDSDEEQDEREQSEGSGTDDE

| DC50 [nM] | Dmax [%] | Compound |
| --- | --- | --- |
| 10 to 30 | > 75 | Cc1ncsc1-c1ccc(CNC(=O)[C@@H]2C[C@@H](O)CN2C(=O)[C@@H](c2cc(OCCOCCOCCn3cc(-c4cc(-c5ccccc5O)nnc4N)cn3)no2)C(C)C)cc1 [compound 15, (2S,4R)-1-[(2R)-2-(3-[2-[2-(2-[4-[3-amino-6-(2-hydroxyphenyl)pyridazin-4-yl]-1H-pyrazol-1-yl]ethoxy)ethoxy]ethoxy]-1,2-oxazol-5-yl)-3-methylbutanoyl]-4-hydroxy-N-[[4-(4-methyl-1,3-thiazol-5-yl)phenyl]methyl]pyrrolidine-2-carboxamide] |
| > 30 | 50 to 75 | Cc1ncsc1-c1ccc(CNC(=O)[C@@H]2C[C@@H](O)CN2C(=O)[C@H](c2cc(OCCOCCOCCOCCn3cc(-c4cc(-c5ccccc5O)nnc4N)cn3)no2)C(C)C)cc1 [compound 16, (2S,4R)-1-((S)-2-(3-(2-(2-(2-(2-(4-(3-amino-6-(2-hydroxyphenyl)pyridazin-4-yl)-1H-pyrazol-1-yl)ethoxy)ethoxy)ethoxy)ethoxy)isoxazol-5-yl)-3-methylbutanoyl)-4-hydroxy-N-(4-(4-methylthiazol-5-yl)benzyl)pyrrolidine-2-carboxamide] |
| 2.5 to 10 | > 75 | Cc1ncsc1-c1ccc(CNC(=O)[C@@H]2C[C@@H](O)CN2C(=O)[C@@H](c2cc(OCCOCCOCCOCCn3cc(-c4cc(-c5ccccc5O)nnc4N)cn3)no2)C(C)C)cc1 [compound 17, (2S,4R)-1-((R)-2-(3-(2-(2-(2-(2-(4-(3-amino-6-(2-hydroxyphenyl)pyridazin-4-yl)-1H-pyrazol-1-yl)ethoxy)ethoxy)ethoxy)ethoxy)isoxazol-5-yl)-3-methylbutanoyl)-4-hydroxy-N-(4-(4-methylthiazol-5-yl)benzyl)pyrrolidine-2-carboxamide] |
| > 30 | 50 to 75 | Cc1ncsc1-c1ccc(CNC(=O)[C@@H]2C[C@@H](O)CN2C(=O)[C@H](c2cc(OCCOCCOCCOCCOCCn3cc(-c4cc(-c5ccccc5O)nnc4N)cn3)no2)C(C)C)cc1 [compound 18, (2S,4R)-1-[(2S)-2-[3-[(14-[4-[3-amino-6-(2-hydroxyphenyl)pyridazin-4-yl]-1H-pyrazol-1-yl]-3,6,9,12-tetraoxatetradecan-1-yl)oxy]-1,2-oxazol-5-yl]-3-methylbutanoyl]-4-hydroxy-N-[[4-(4-methyl-1,3-thiazol-5-yl)phenyl]methyl]pyrrolidine-2-carboxamide] |
| 10 to 30 | > 75 | Cc1ncsc1-c1ccc(CNC(=O)[C@@H]2C[C@@H](O)CN2C(=O)[C@@H](c2cc(OCCOCCOCCOCCOCCn3cc(-c4cc(-c5ccccc5O)nnc4N)cn3)no2)C(C)C)cc1 [compound 19, (2S,4R)-1-[(2R)-2-[3-[(14-[4-[3-amino-6-(2-hydroxyphenyl)pyridazin-4-yl]-1H-pyrazol-1-yl]-3,6,9,12-tetraoxatetradecan-1-yl)oxy]-1,2-oxazol-5-yl]-3-methylbutanoyl]-4-hydroxy-N-[[4-(4-methyl-1,3-thiazol-5-yl)phenyl]methyl]pyrrolidine-2-carboxamide] |
| > 30 | 50 to 75 | Cc1ncsc1-c1ccc(CNC(=O)[C@@H]2C[C@@H](O)CN2C(=O)[C@H](C(C)C)N2Cc3ccccc3C2=O)c(OCCOCCOCCOCCOCCOCCn2cc(-c3cc(-c4ccccc4O)nnc3N)cn2)c1 [compound 20, (2S,4R)-N-(2-((17-(4-(3-amino-6-(2-hydroxyphenyl)pyridazin-4-yl)-1H-pyrazol-1-yl)-3,6,9,12,15-pentaoxaheptadecyl)oxy)-4-(4-methylthiazol-5-yl)benzyl)-4-hydroxy-1-((S)-3-methyl-2-(1-oxoisoindolin-2-yl)butanoyl)pyrrolidine-2-carboxamide] |
| – | < 50 | Cc1ncsc1-c1ccc(CNC(=O)[C@@H]2C[C@@H](O)CN2C(=O)[C@H](C(C)C)N2Cc3ccccc3C2=O)c(OCCOCCOCCn2cc(-c3cc(-c4ccccc4O)nnc3N)cn2)c1 [compound 21, (2S,4R)-N-(2-(2-(2-(2-(4-(3-amino-6-(2-hydroxyphenyl)pyridazin-4-yl)-1H-pyrazol-1-yl)ethoxy)ethoxy)ethoxy)-4-(4-methylthiazol-5-yl)benzyl)-4-hydroxy-1-((S)-3-methyl-2-(1-oxoisoindolin-2-yl)butanoyl)pyrrolidine-2-carboxamide] |
| > 30 | > 75 | Cc1ncsc1-c1ccc(CNC(=O)[C@@H]2C[C@@H](O)CN2C(=O)C(c2cc(CCCOCCOCCn3cc(-c4cc(-c5ccccc5O)nnc4N)cn3)no2)C(C)C)cc1 (stereo partly drawn) [compound 22, (2S,4R)-1-(2-(3-(3-(2-(2-(4-(3-amino-6-(2-hydroxyphenyl)pyridazin-4-yl)-1H-pyrazol-1-yl)ethoxy)ethoxy)propyl)isoxazol-5-yl)-3-methylbutanoyl)-4-hydroxy-N-(4-(4-methylthiazol-5-yl)benzyl)pyrrolidine-2-carboxamide] |
| > 30 | > 75 | Cc1ncsc1-c1ccc(CNC(=O)[C@@H]2C[C@@H](O)CN2C(=O)[C@H](c2cc(CCCOCCOCCOCCn3cc(-c4cc(-c5ccccc5O)nnc4N)cn3)no2)C(C)C)cc1 [compound 23, (2S,4R)-1-[(2S)-2-[3-(3-[2-[2-(2-[4-[3-amino-6-(2-hydroxyphenyl)pyridazin-4-yl]-1H-pyrazol-1-yl]ethoxy)ethoxy]ethoxy]propyl)-1,2-oxazol-5-yl]-3-methylbutanoyl]-4-hydroxy-N-[[4-(4-methyl-1,3-thiazol-5-yl)phenyl]methyl]pyrrolidine-2-carboxamide] |
| 2.5 to 10 | > 75 | Cc1ncsc1-c1ccc(CNC(=O)[C@@H]2C[C@@H](O)CN2C(=O)[C@@H](c2cc(CCCOCCOCCOCCn3cc(-c4cc(-c5ccccc5O)nnc4N)cn3)no2)C(C)C)cc1 [compound 24, (2S,4R)-1-[(2R)-2-[3-(3-[2-[2-(2-[4-[3-amino-6-(2-hydroxyphenyl)pyridazin-4-yl]-1H-pyrazol-1-yl]ethoxy)ethoxy]ethoxy]propyl)-1,2-oxazol-5-yl]-3-methylbutanoyl]-4-hydroxy-N-[[4-(4-methyl-1,3-thiazol-5-yl)phenyl]methyl]pyrrolidine-2-carboxamide] |
| > 30 | > 75 | Cc1ncsc1-c1ccc(CNC(=O)[C@@H]2C[C@@H](O)CN2C(=O)[C@H](c2cc(CCCOCCOCCOCCOCCn3cc(-c4cc(-c5ccccc5O)nnc4N)cn3)no2)C(C)C)cc1 [compound 25] |
| 10 to 30 | > 75 | Cc1ncsc1-c1ccc(CNC(=O)[C@@H]2C[C@@H](O)CN2C(=O)[C@@H](c2cc(CCCOCCOCCOCCOCCn3cc(-c4cc(-c5ccccc5O)nnc4N)cn3)no2)C(C)C)cc1 [compound 26, (2S,4R)-1-[(2R)-2-[3-(1-[4-[3-amino-6-(2-hydroxyphenyl)pyridazin-4-yl]-1H-pyrazol-1-yl]-3,6,9,12-tetraoxapentadecan-15-yl)-1,2-oxazol-5-yl]-3-methylbutanoyl]-4-hydroxy-N-[[4-(4-methyl-1,3-thiazol-5-yl)phenyl]methyl]pyrrolidine-2-carboxamide] |

| Compound | DC50 [nM] | Dmax [%] |
| --- | --- | --- |
| Cc1ncsc1-c1ccc(CNC(=O)[C@@H]2C[C@@H](O)CN2C(=O)[C@H](c2cc(OCCOCCOCCOc3cc(N4C5CCC4CN(c4cc(-c6ccccc6O)nnc4N)C5)ccn3)no2)C(C)C)cc1 [compound 27, (2S,4R)-1-[(2S)-2-[3-[2-(2-[2-[(4-[3-[3-amino-6-(2-hydroxyphenyl)pyridazin-4-yl]-3,8-diazabicyclo[3.2.1]octan-8-yl]pyridin-2-yl)oxy]ethoxy]ethoxy)ethoxy]-1,2-oxazol-5-yl]-3-methylbutanoyl]-4-hydroxy-N-[[4-(4-methyl-1,3-thiazol-5-yl)phenyl]methyl]pyrrolidine-2-carboxamide] | > 30 | > 75 |
| Cc1ncsc1-c1ccc(CNC(=O)[C@@H]2C[C@@H](O)CN2C(=O)[C@@H](c2cc(OCCOCCOCCOc3cc(N4C5CCC4CN(c4cc(-c6ccccc6O)nnc4N)C5)ccn3)no2)C(C)C)cc1 [compound 28, (2S,4R)-1-[(2R)-2-[3-[2-(2-[2-[(4-[3-[3-amino-6-(2-hydroxyphenyl)pyridazin-4-yl]-3,8-diazabicyclo[3.2.1]octan-8-yl]pyridin-2-yl)oxy]ethoxy]ethoxy)ethoxy]-1,2-oxazol-5-yl]-3-methylbutanoyl]-4-hydroxy-N-[[4-(4-methyl-1,3-thiazol-5-yl)phenyl]methyl]pyrrolidine-2-carboxamide] | < 2.5 | > 75 |
| Cc1ncsc1-c1ccc(CNC(=O)[C@@H]2C[C@@H](O)CN2C(=O)[C@H](c2cc(OCCOCCOCCOCCOc3cc(N4C5CCC4CN(c4cc(-c6ccccc6O)nnc4N)C5)ccn3)no2)C(C)C)cc1 [compound 29, (2S,4R)-1-[(2S)-2-(3-[[1-(4-[3-[3-amino-6-(2-hydroxyphenyl)pyridazin-4-yl]-3,8-diazabicyclo[3.2.1]octan-8-yl]pyridin-2-yl)-1,4,7,10-tetraoxadodecan-12-yl]oxy]-1,2-oxazol-5-yl)-3-methylbutanoyl]-4-hydroxy-N-[[4-(4-methyl-1,3-thiazol-5-yl)phenyl]methyl]pyrrolidine-2-carboxamide] | 10 to 30 | > 75 |
| Cc1ncsc1-c1ccc(CNC(=O)[C@@H]2C[C@@H](O)CN2C(=O)[C@@H](c2cc(OCCOCCOCCOCCOc3cc(N4C5CCC4CN(c4cc(-c6ccccc6O)nnc4N)C5)ccn3)no2)C(C)C)cc1 [compound 30, (2S,4R)-1-[(2R)-2-(3-[[1-(4-[3-[3-amino-6-(2-hydroxyphenyl)pyridazin-4-yl]-3,8-diazabicyclo[3.2.1]octan-8-yl]pyridin-2-yl)-1,4,7,10-tetraoxadodecan-12-yl]oxy]-1,2-oxazol-5-yl)-3-methylbutanoyl]-4-hydroxy-N-[[4-(4-methyl-1,3-thiazol-5-yl)phenyl]methyl]pyrrolidine-2-carboxamide] | < 2.5 | > 75 |
